Measured values published in patent publication US20130065818A1, “Arylamide Compounds And Compositions And Uses Thereof” (POLYMEDIX, priority 2006, published 2013).
Values joined by “and” are separate entries in the source; they are usually repeats but may differ in a detail not shown here. Equal values may be shown once. “Also recorded” adds a separate entry of the source.

Assays:
[1] = Draize ocular toxicity scoring, NZW rabbit ocular toxicity model; type: in vivo; set-up: key to MMTS / Score (Draize total): Draize total score of cornea, iris and conjunctivae; maximum 110; III. B. Chemosis / I. A. Cornea opacity / I. B. Area of cornea involved / II. A. Iris / III. A. Conjunctivae redness / III. C. Discharge: scale not given here
Procedure: The ocular toxicity of several concentrations of Oligomer 2, using the Draize ocular toxicity scoring system, in the NZW rabbit ocular toxicity model was carried out.
(§1) Rabbits were treated in both eyes with (37 μl) topical drops every 30 minutes for 3 hours (7 total doses). One rabbit was treated with Tris-Buffered Saline and served as a negative control. Rabbits were evaluated in a masked fashion for ocular toxicity by an ophthalmologist with specialty training in corneal and external disease. Ocular toxicity was evaluated using the Draize scoring system after treatment on Day 0 and on Day 3 post treatment for any delayed toxicity. (Draize et al., J. Pharmacol. Exp. Ther., 1944, 82, 377-390).
A brief summary of the Draize scoring system for ocular lesions is provided below
Total Maximum Score: 110 represents the sum of all scores obtained for the cornea, iris and conjunctivae.
The ocular toxicity of several formulations of Oligomer 4 with and without farnesol, using the Draize ocular toxicity scoring system, in the NZW rabbit ocular toxicity model was carried out.
as §1, with “external disease 30 minutes after the final dose.” for “external disease.”, “system (see above)” for “system”, “Day 2” for “Day 3”, “toxicity.” for “toxicity. (Draize et al., J. Pharmacol. Exp. Ther., 1944, 82, 377-390).”

[2] = tested on: fluoroquinolone-resistant, methicillin-resistant Staphylococcus aureus (K950); experiment: NZW rabbit keratitis model, corneal colony counts; type: in vivo
Method in brief: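 NZW rabbit corneas, with or without intact epithelia, infected with fluoroquinolone-resistant MRSA; right eyes left untreated. Topical treatments included 1%, 0.5% or 0.25% Oligomer 2 (0.25% ± 0.005% benzalkonium chloride), 0.25% Oligomer 4 ± 200 μM Farnesol, 200 μM Farnesol alone, and 5% vancomycin; read-out corneal colony counts.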

[3] = 0.25% Oligomer 4 in TBS, Day 0, per eye
[4] = 0.25% Oligomer 4 in TBS, Day 2, per eye
[5] = 0.25% in Tris Buffered Saline (TBS), Day 0
[6] = 0.25% in Tris Buffered Saline (TBS), Day 2
[7] = 0.5% Oligomer 4 in TBS, Day 0, per eye
[8] = 0.5% Oligomer 4 in TBS, Day 2, per eye
[9] = 0.5% in Tris Buffered Saline (TBS), Day 0
[10] = 0.5% in Tris Buffered Saline (TBS), Day 2

**Q.** With `N=C(N)NCCCCC(=O)Nc1cc(C(F)(F)F)cc(NC(=O)c2cc(C(=O)Nc3cc(C(F)(F)F)cc(NC(=O)CCCCNC(=N)N)c3O[C@@H]3CCNC3)ncn2)c1O[C@@H]1CCNC1` [Oligomer 4] as the compound, how does the “Classification of eye irritation” value ([1]; 0.25% Oligomer 4 in TBS, Day 0) read?
**A.** Practically Non-Irritating

**Q.** And the MMTS ([1]; 0.25% Oligomer 4 in TBS, Day 0)?
**A.** 1.5

**Q.** And the MMTS classification symbol ([1]; 0.25% Oligomer 4 in TBS, Day 0)?
**A.** PN (0.6-2.5 Practically Non-Irritating)

**Q.** And the “I. A. Cornea opacity” value [1, 3]?
**A.** 0

**Q.** And the “I. B. Area of cornea involved” value [1, 3]?
**A.** 0

**Q.** What about the “I. Tot (cornea, A × B × 5)” value [1, 3] of the same compound?
**A.** 0

**Q.** And the “II. A. Iris” value [1, 3]?
**A.** 0

**Q.** And the “II. Tot (iris, A × 5)” value [1, 3]?
**A.** 0

**Q.** What about the “III. A. Conjunctivae redness” value [1, 3] of the same compound?
**A.** 0

**Q.** And the “III. B. Chemosis” value [1, 3]?
**A.** 0

**Q.** What about the “Classification of eye irritation” value ([1]; 0.25% Oligomer 4 in TBS, Day 2) of the same compound?
**A.** Non-Irritating

**Q.** And the MMTS ([1]; 0.25% Oligomer 4 in TBS, Day 2)?
**A.** 0.5

**Q.** What about the MMTS classification symbol ([1]; 0.25% Oligomer 4 in TBS, Day 2) of the same compound?
**A.** N (0.0-0.5 Non-Irritating)

**Q.** What about the “I. A. Cornea opacity” value [1, 4] of the same compound?
**A.** 0

**Q.** And the “I. B. Area of cornea involved” value [1, 4]?
**A.** 0

**Q.** What about the “I. Tot (cornea, A × B × 5)” value [1, 4] of the same compound?
**A.** 0

**Q.** And the “II. A. Iris” value [1, 4]?
**A.** 0

**Q.** And the “II. Tot (iris, A × 5)” value [1, 4]?
**A.** 0

**Q.** What about the “III. A. Conjunctivae redness” value [1, 4] of the same compound?
**A.** 0

**Q.** And the “III. B. Chemosis” value [1, 4]?
**A.** 0

**Q.** And the MMTS [1, 5]?
**A.** 1.5

**Q.** What about the MMTS classification [1, 5] of the same compound?
**A.** PN (0.6-2.5 Practically Non-Irritating)

**Q.** What about the MMTS [1, 6] of the same compound?
**A.** 0.5

**Q.** What about the MMTS classification [1, 6] of the same compound?
**A.** N (0.0-0.5 Non-Irritating)

**Q.** And the “Classification of eye irritation” value ([1]; 0.5% Oligomer 4 in TBS, Day 0)?
**A.** Mildly Irritating

**Q.** And the MMTS ([1]; 0.5% Oligomer 4 in TBS, Day 0)?
**A.** 6.5

**Q.** And the MMTS classification symbol ([1]; 0.5% Oligomer 4 in TBS, Day 0)?
**A.** M1 (2.6-15.0 Minimally Irritating)

**Q.** And the “I. A. Cornea opacity” value [1, 7]?
**A.** 0

**Q.** What about the “I. B. Area of cornea involved” value [1, 7] of the same compound?
**A.** 0

**Q.** What about the “I. Tot (cornea, A × B × 5)” value [1, 7] of the same compound?
**A.** 0

**Q.** And the “II. A. Iris” value [1, 7]?
**A.** 0

**Q.** What about the “II. Tot (iris, A × 5)” value [1, 7] of the same compound?
**A.** 0

**Q.** And the “III. C. Discharge” value [1, 7]?
**A.** 2 and 1

**Q.** What about the MMTS ([1]; 0.5% Oligomer 4 in TBS, Day 2) of the same compound?
**A.** 1.0

**Q.** What about the MMTS classification symbol ([1]; 0.5% Oligomer 4 in TBS, Day 2) of the same compound?
**A.** N (0.0-0.5 Non-Irritating)

**Q.** And the “I. A. Cornea opacity” value [1, 8]?
**A.** 0

**Q.** What about the “I. B. Area of cornea involved” value [1, 8] of the same compound?
**A.** 0

**Q.** What about the “I. Tot (cornea, A × B × 5)” value [1, 8] of the same compound?
**A.** 0

**Q.** And the “II. A. Iris” value [1, 8]?
**A.** 0

**Q.** And the “II. Tot (iris, A × 5)” value [1, 8]?
**A.** 0

**Q.** What about the “III. A. Conjunctivae redness” value [1, 8] of the same compound?
**A.** 0

**Q.** What about the “III. B. Chemosis” value [1, 8] of the same compound?
**A.** 0

**Q.** What about the MMTS [1, 9] of the same compound?
**A.** 6.5

**Q.** What about the MMTS classification [1, 9] of the same compound?
**A.** M1 (2.6-15.0 Minimally Irritating)

**Q.** What about the MMTS [1, 10] of the same compound?
**A.** 1.0

**Q.** What about the MMTS classification [1, 10] of the same compound?
**A.** N (0.0-0.5 Non-Irritating)

**Q.** And the “Dose dependence of ocular toxicity” value ([1]; Example 7, 7 topical instillations, every 30 minutes for 3 hours)?
**A.** dose dependent ocular toxicity

**Q.** And the “Effect of addition of 100 μM Farnesol in 1% Propylene Glycol on ocular toxicity” value ([1]; rabbit, in vivo)?
**A.** increased the toxicity

**Q.** And the “Effect of addition of Farnesol on penetration and antibacterial efficacy of Oligomer 4” value ([2]; Ker-4)?
**A.** did nothing to promote penetration; also recorded: a trend toward antagonism

**Q.** And the “Reduction of colony counts compared with the Onset of Therapy Control” value ([2]; Ker-4, corneal epithelium removed)?
**A.** effective

**Q.** What about the “Effect of addition of Farnesol on penetration of 0.25% Oligomer 4 through the intact corneal epithelium” value ([2]; in vivo) of the same compound?
**A.** did not appear aid in the penetration
